The values below come from paper PMC5054363 (Scientific Reports, 2016).

In general, Kd refers to the concentration at which binding is half-saturated.

*1 amine or outer side, *2 acyl side, *3 side chain or, on linkers, in order; H or OH if unused. Where a SMILES comes first, the peptide text is derived from it. Bridges are numbered along the chain shown (N, C = ends). [ ]: non-standard residue; d: D form. The star is where a group is joined. X1 = CC[C@H](C)[C@@H](N[*:1])[C@@H](O)CC(=O)O[C@H](C(=O)[C@H](C)C(=O)[*:2])C(C)C; NMeY = CN[C@@H](Cc1ccc(O)cc1)C(=O)O; dNMeL = CN[C@H](CC(C)C)C(=O)O; Pyruvoyl = CC(=O)C(=O)*

The target in one assay is eEF1A-ribosome complex. The following applies: binding to the eEF1A-ribosome complex; cited from earlier work. An excerpt:
(§1) Until now, very few chemical entities have been identified as modulators of eEF1A2. […] Other authors also reported the discovery of several flavonoids as well as phenanthridones (e.g ...

In assay [1] the target is EF1A isolated from rabbit reticulocytes. The following applies: cited from earlier work.
From the text: as §1

The test system of another assay is protein synthesis. The following applies: cited from earlier work.
The subject of a further assay is both eEF1A isoforms. The following applies: cited from earlier work.
From the text: as §1

Assay [2] has as its target eEF1A1 purified from rabbit liver (Oryctolagus cuniculus, UniProt P68105). The following applies: saturation binding, [14C]-plitidepsin, 1 h, room temperature, triplicate, Swillens fit (Supplementary Figure 4).
Method: All samples in binding assays were tested in triplicate. […] After 1 h incubation at room temperature, 450 μL were withdrawn, filtered through GF/C filters (Millipore, Bedford, CA) and washed three times with the same buffer used for the incubation. Filters were then removed, dried and their radioactivity was finally counted as a measurement of total (specific and non-specific) bound drug. […] Scintillation counting was transformed into concentration values considering the specific activity of the radioligand and the sample volume. The concentration of bound radioligand was related to the total amount of radioligand in the sample using the expression derived by Swillens[12] to account for ligand depletion when the concentration of protein was similar to that of radioligand:
was purified from rabbit liver as described in ( 48) . Protein and radioligand wer e
incubated for 1 h at room temperature and samples were processed as described in the
For assay [3], the system named is subcellular and chromatographic fractions of K-562 cell lysate. Briefly: Binding of [14C]-plitidepsin to K-562 lysate fractions. The following applies: 500 nM [14C]-plitidepsin with or without 10 μM unlabeled plitidepsin, 1 h, room temperature, subcellular fractions. The protocol:
Figure 4 Identification of the plitidepsin-binding protein in a K-562 cells lysate. […] In the horizontal axis “P” and “S” mean “pellet” and “supernatant”, respectively, with the figure aside denoting the relative centrifugal force (in thousands of g) used to obtain such fraction. Data (in dpm per mg of protein) represent the mean of three independent samples with error bars showing S.D. * means p < 0.05. (C) Anion-exchange chromatography on DEAE, flow rate 5 mL/min. (D) Cation-exchange chromatography on SP, flow rate 2.5 mL/min. (E) Size exclusion chromatography on Superdex 200, flow rate 4 mL/min. Representative fractions (4-mL) from each portion of the eluates were analyzed for their binding to [^14C]-plitidepsin in the presence (grey bars, non-specific binding) or absence (black bars, total binding) of a 20-fold excess of unlabeled drug. Only fractions showing significant specific binding to the radioligand were pooled and progressed to the next chromatographic step. In all cases absorbance is expressed in mAU and conductivity in mS/cm.
The rest of the peptides detected in this material corresponded to fragments whose sequences are common to both isoforms, thus discarding the presence of any other protein.
After 1 h incubation at room temperature 400 μL of each tube were withdrawn and processed as described above.

eEF1A1 purified from rabbit liver, sequence (P68105 whole entry): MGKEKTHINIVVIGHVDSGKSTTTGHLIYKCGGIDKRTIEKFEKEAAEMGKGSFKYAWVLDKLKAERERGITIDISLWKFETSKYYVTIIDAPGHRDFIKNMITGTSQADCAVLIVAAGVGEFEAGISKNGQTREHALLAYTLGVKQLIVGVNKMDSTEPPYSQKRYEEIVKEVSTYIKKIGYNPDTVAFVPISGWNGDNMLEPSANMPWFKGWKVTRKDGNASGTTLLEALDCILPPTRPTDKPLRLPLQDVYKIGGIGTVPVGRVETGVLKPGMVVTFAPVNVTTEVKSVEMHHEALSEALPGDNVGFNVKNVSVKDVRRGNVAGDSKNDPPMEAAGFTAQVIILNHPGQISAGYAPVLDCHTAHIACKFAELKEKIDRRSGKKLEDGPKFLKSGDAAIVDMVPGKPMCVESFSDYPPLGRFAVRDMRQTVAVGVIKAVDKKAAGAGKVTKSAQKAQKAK

Turning to didemnin B, the Kd on eEF1A-ribosome complex is 4 µM; in assay [1] (binding to EF1A), 200 µM. In assay [1] (isoform not specified), the “interaction with eEF1A” value is listed as “interact with eEF1A”. Further, the protein synthesis inhibition entry in the assay on protein synthesis is “only at μM concentrations”.
With `O=C1N[C@H]2[C@H](O)[C@H](O)[C@@H](O)[C@H](O)[C@@H]2c2cc3c(c(O)c21)OCO3` [pancratistatine], the “binding to eEF1A isoforms” value in the assay on both eEF1A isoforms is “selectively bind to both eEF1A isoforms”.
For the compound `O=C1N[C@@H]2C(=C[C@H](O)[C@@H](O)[C@H]2O)c2cc3c(c(O)c21)OCO3` [narciclasine], in the assay with both eEF1A isoforms, the “binding to eEF1A isoforms” value was “selectively bind to both eEF1A isoforms”.
In assay [2], `CC[C@H](C)[C@H]1NC(=O)[C@@H](NC(=O)[C@@H](CC(C)C)N(C)C(=O)[C@@H]2CCCN2C(=O)C(C)=O)[C@@H](C)OC(=O)[C@H](Cc2ccc(OC)cc2)N(C)C(=O)[C@@H]2CCCN2C(=O)[C@H](CC(C)C)NC(=O)[C@@H](C)C(=O)[C@H](C(C)C)OC(=O)C[C@@H]1O` [[^14C]-plitidepsin] (Pyruvoyl-P[dNMeL]T[X1]LP[NMeY](Me); ester 3-C (inferred)) returned a Kd of 0.183 ± 0.032 µM. Besides, the binding to pellets result in assay [3] (pellets) is recorded as “non-specifically”. Also, the “binding to soluble fractions” value in assay [3] (soluble) was “retained by the soluble fractions”.
